From patent publication US20140057976A1, “USNIC ACID TOPICAL FORMULATION” (EVOCUTIS PLC, priority 2011, published 2014)
Marks after values point to notes of the source that are not given here.

How the values were obtained:
[1] = tested on: Corynebacterium striatum NCTC 764; assay: MBC against Corynebacterium striatum; format: cell-based
[2] = tested on: S. aureus ATCC 29213; assay: MIC against S. aureus; format: cell-based
[3] = tested on: P. acnes NCTC 737; assay: Synthetic sebum time-to-kill assay; format: cell-based, Propionibacterium acnes; details: 49 μg/mL Cu usnate (equivalent)
Procedure: This quantitative assay was designed to assess the level of kill of a P. acnes culture in a synthetic sebum (non-aqueous environment) over a defined time period, in this case 4 hours. A culture of P. acnes NCTC 737 was inoculated into a synthetic sebum (a liquid mixture of lipid components designed to simulate human sebum) containing the relevant test compound or formulation diluted in 1-octanol. From this culture, samples were taken after 4 hours, 10-fold serially diluted in wash fluid (0.075 M sodium phosphate buffer, pH 7.9, 0.1% v/v Triton™-X 100) and inoculated onto agar plates (in triplicate). The plates were then incubated as described above and subsequently examined visually for growth. The numbers of viable microbial colonies on the plates were counted with the aid of a colony counter and converted to colony-forming units per ml (cfu/ml) using the appropriate dilution factor. Cell counts conducted in the absence of formulations (but still in the presence of 1-octanol) acted as positive controls. All experiments were conducted in triplicate.

[4] = tested on: Propionibacterium acnes NCTC 737; assay: Minimum inhibitory concentration (MIC) assay; format: cell-based; details: P. acnes NCTC 737
Procedure: (§1) The test organism used was Propionibacterium acnes NCTC 737. This is a propionibacterial strain and is the type strain of the […]; it is fully susceptible to antibiotics. The propionibacteria are clinically significant due to their involvement in acne. They are also opportunistic pathogens in compromised hosts. Activity observed against these micro-organisms is expected to be a good predictor of activity against acne.
(§2) The propionibacteria were cultured and maintained on Wilkins-Chalgren Anaerobe Medium (agar and broth) at pH 6.0; all cultures were incubated anaerobically at 37° C. for 72 hours.
This is a standard international method for quantitatively assessing the antimicrobial activity of a compound/formulation in a liquid medium. The method used a sterile 96-well microtitre plate, capable of holding about 200 μl of liquid per well. The wells contained liquid culture medium and ranges of decreasing concentrations of the relevant test compound/formulation (in this case reported as the relative concentration of the active molecule—copper usnate—in the formulations) in doubling dilutions (eg 1000, 500, 250, 125 . . . μg/ml, etc, down to 0.49 μg/ml). The culture media were as described above.
The wells were inoculated with a liquid suspension of freshly grown micro-organism and incubated under the conditions described above. After incubation, the microtitre plate was examined visually for cloudiness in each well, which would indicate microbial growth. The MIC value was recorded as the lowest concentration of test compound/formulation required to inhibit microbial growth, ie the lowest concentration for which the liquid in the well remained clear.
The assays included both negative (culture medium with no micro-organisms) and positive (culture medium plus diluting solvent plus micro-organism) controls.

[5] = tested on: Corynebacterium striatum NCTC 764; assay: MIC against Corynebacterium striatum; format: cell-based
[6] = tested on: S. aureus ATCC 29213; assay: MBC against S. aureus; format: cell-based
[7] = tested on: Propionibacterium acnes NCTC 737; assay: Minimum biocidal concentration (MBC) assay; format: cell-based; details: P. acnes NCTC 737
Procedure: as §1, §2
This assay, normally carried out after an MIC assay, determines the minimum concentration of a compound or formulation that is lethal to the test micro-organism.
These samples were then individually sub-cultured on antibiotic-free agar medium, under the incubation conditions described above. Following incubation they were examined visually for microbial growth.
The ratio of MIC to MBC should ideally be as close to 1 as possible. This facilitates selection of the lowest possible effective concentration of a test compound or formulation, with a reduced risk of selecting a sub-lethal concentration which could promote resistance or allow the target microbial population to recover.

SMILES: CC(=O)c1c([O-])c(C)c([O-])c2c1OC1=CC(=O)C(C(C)=O)C(=O)C12C.[Cu+2] (stereo not drawn) [Copper usnate, copper (II) di-usnate]
- MBC [1]: 62.5 µg/mL
- MIC [2]: 7.8 µg/mL
- Log10 cfu/ml (T0 hours) ([3]; T0 hours): 7.97 Log10 cfu/ml
- Log10 change ([3]; T0 to T4 hours): −4.97 Log10
- Log10 cfu/ml (T4 hours) ([3]; T4 hours, lowest detectable level = 3.0 Log10 cfu/ml): ≤ 3.0* Log10 cfu/ml
- MIC:MBC ratio ([4]; Example 13): 0.25
- MIC ([4]; Example 13, formulations as Cu usnate equivalent, anaerobic 37° C. 72 hours): 0.24 µg/mL
- minimum inhibitory concentration (MIC) ([4]; found by the present inventors): 0.49 µg/mL
- MIC [5]: 3.9 µg/mL
- MBC [6]: 62.5 µg/mL
- MBC ([7]; Example 13, formulations as Cu usnate equivalent): 0.98 µg/mL
- minimum biocidal concentration (MBC) ([7]; found by the present inventors): 3.9 µg/mL
